Data taken from BindingDB's records for PubMed 34170694 (China Pharmaceutical University, 2021).

biological target: T1, Caspase-3 (Homo sapiens, UniProt P42574); experiment: Activation of caspase 3 in human MDA-MB-231 cells measured after 48 hrs by Plate reader method
T1 sequence (P42574 whole entry): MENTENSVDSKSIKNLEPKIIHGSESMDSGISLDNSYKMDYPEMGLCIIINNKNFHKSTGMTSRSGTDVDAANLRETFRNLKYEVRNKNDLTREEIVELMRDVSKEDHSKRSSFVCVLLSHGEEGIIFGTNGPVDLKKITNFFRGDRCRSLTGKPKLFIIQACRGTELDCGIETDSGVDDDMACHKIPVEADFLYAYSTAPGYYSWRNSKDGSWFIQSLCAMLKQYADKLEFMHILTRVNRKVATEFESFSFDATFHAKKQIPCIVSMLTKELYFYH

Structure (SMILES) | EC50 [µM]
C=c1c(O)c(O)cc2c1=CC=C1[C@@]2(C)CC[C@@]2(C)[C@@H]3C[C@](C)(C(=O)O)CC[C@]3(C)CC[C@]12C | 1.4

biological target: not listed separately; experiment: Activation of caspase 3 in human MDA-MB-231 cells measured after 48 hrs by Plate reader method

Structure (SMILES) | EC50 [µM]
CC1=C(O)C(=O)C=C2C1=CC=C1[C@@]2(C)CC[C@@]2(C)[C@@H]3C[C@](C)(C(=O)OCc4ccccc4)CC[C@]3(C)CC[C@]12C | 1.6
C#CCOC(=O)[C@]1(C)CC[C@]2(C)CC[C@]3(C)C4=CC=C5C(=CC(=O)C(OC(C)=O)=C5C)[C@]4(C)CC[C@@]3(C)[C@@H]2C1 | 19.3
C#CCOC(=O)[C@]1(C)CC[C@]2(C)CC[C@]3(C)C4=CC=C5C(=CC(=O)C(OC(=O)CCC)=C5C)[C@]4(C)CC[C@@]3(C)[C@@H]2C1 | 20.9
C#CCOC(=O)[C@]1(C)CC[C@]2(C)CC[C@]3(C)C4=CC=C5C(=CC(=O)C(OC(=O)c6ccc(Br)cc6)=C5C)[C@]4(C)CC[C@@]3(C)[C@@H]2C1 | 16.4
C#CCOC(=O)[C@]1(C)CC[C@]2(C)CC[C@]3(C)C4=CC=C5C(=CC(=O)C(OC(=O)c6ccc(F)cc6)=C5C)[C@]4(C)CC[C@@]3(C)[C@@H]2C1 | 21.2
C#CCOC(=O)[C@]1(C)CC[C@]2(C)CC[C@]3(C)C4=CC=C5C(=CC(=O)C(OC(=O)C=C)=C5C)[C@]4(C)CC[C@@]3(C)[C@@H]2C1 | 22.1
C#CCOC(=O)[C@]1(C)CC[C@]2(C)CC[C@]3(C)C4=CC=C5C(=CC(=O)C(OC(=O)/C=C/C)=C5C)[C@]4(C)CC[C@@]3(C)[C@@H]2C1 | 19.7
C#CCOC(=O)[C@]1(C)CC[C@]2(C)CC[C@]3(C)C4=CC=C5C(=CC(=O)C(OC(=O)/C=C/c6ccccc6)=C5C)[C@]4(C)CC[C@@]3(C)[C@@H]2C1 | 20.1
C#CCOC(=O)[C@]1(C)CC[C@]2(C)CC[C@]3(C)C4=CC=C5C(=CC(=O)C(OC(=O)/C=C/c6ccccc6F)=C5C)[C@]4(C)CC[C@@]3(C)[C@@H]2C1 | 14.1
C#CCOC(=O)[C@]1(C)CC[C@]2(C)CC[C@]3(C)C4=CC=C5C(=CC(=O)C(OC(=O)/C=C/c6cccc(Cl)c6)=C5C)[C@]4(C)CC[C@@]3(C)[C@@H]2C1 | 15.7
C#CCOC(=O)[C@]1(C)CC[C@]2(C)CC[C@]3(C)C4=CC=C5C(=CC(=O)C(OC(=O)/C=C/c6cccc(C)c6)=C5C)[C@]4(C)CC[C@@]3(C)[C@@H]2C1 | 17.8
C#CCOC(=O)[C@]1(C)CC[C@]2(C)CC[C@]3(C)C4=CC=C5C(=CC(=O)C(OC(=O)C(=C)C)=C5C)[C@]4(C)CC[C@@]3(C)[C@@H]2C1 | 14.9
C#CCOC(=O)[C@]1(C)CC[C@]2(C)CC[C@]3(C)C4=CC=C5C(=CC(=O)C(OC(=O)N(CC)CC)=C5C)[C@]4(C)CC[C@@]3(C)[C@@H]2C1 | 20.4
C#CCOC(=O)[C@]1(C)CC[C@]2(C)CC[C@]3(C)C4=CC=C5C(=CC(=O)C(OC(=O)N(C)CC)=C5C)[C@]4(C)CC[C@@]3(C)[C@@H]2C1 | 18.7
C#CCOC(=O)[C@]1(C)CC[C@]2(C)CC[C@]3(C)C4=CC=C5C(=CC(=O)C(OC(=O)N(c6ccccc6)c6ccccc6)=C5C)[C@]4(C)CC[C@@]3(C)[C@@H]2C1 | 19.9
C#CCOC(=O)[C@]1(C)CC[C@]2(C)CC[C@]3(C)C4=CC=C5C(=CC(=O)C(OC(=O)N6c7ccccc7Sc7ccccc76)=C5C)[C@]4(C)CC[C@@]3(C)[C@@H]2C1 | 18.5

Structure (SMILES) | EC50 [µM]
C#CCOC(=O)[C@]1(C)CC[C@]2(C)CC[C@]3(C)C4=CC=C5C(=CC(=O)C(OC(=O)N(C)C)=C5C)[C@]4(C)CC[C@@]3(C)[C@@H]2C1 | 23.9
C#CCOC(=O)[C@]1(C)CC[C@]2(C)CC[C@]3(C)C4=CC=C5C(=CC(=O)C(OC(=O)N6c7ccccc7CCc7ccccc76)=C5C)[C@]4(C)CC[C@@]3(C)[C@@H]2C1 | 10
C#CCOC(=O)[C@]1(C)CC[C@]2(C)CC[C@]3(C)C4=CC=C5C(=CC(=O)C(OC(=O)N6CCCCC6)=C5C)[C@]4(C)CC[C@@]3(C)[C@@H]2C1 | 24.1
C#CCOC(=O)[C@]1(C)CC[C@]2(C)CC[C@]3(C)C4=CC=C5C(=CC(=O)C(OC(=O)N6CCCC6)=C5C)[C@]4(C)CC[C@@]3(C)[C@@H]2C1 | 24.3
C#CCOC(=O)[C@]1(C)CC[C@]2(C)CC[C@]3(C)C4=CC=C5C(=CC(=O)C(OC(=O)N6c7ccccc7C=Cc7ccccc76)=C5C)[C@]4(C)CC[C@@]3(C)[C@@H]2C1 | 23.1
C#CCOC(=O)[C@]1(C)CC[C@]2(C)CC[C@]3(C)C4=CC=C5C(=CC(=O)C(OC(=O)N6CCN(C)CC6)=C5C)[C@]4(C)CC[C@@]3(C)[C@@H]2C1 | 20.5
C#CCOC(=O)[C@]1(C)CC[C@]2(C)CC[C@]3(C)C4=CC=C5C(=CC(=O)C(OC(=O)N(CCC)CCC)=C5C)[C@]4(C)CC[C@@]3(C)[C@@H]2C1 | 17.5
C#CCOC(=O)[C@]1(C)CC[C@]2(C)CC[C@]3(C)C4=CC=C5C(=CC(=O)C(OC(=O)N(C)CCC)=C5C)[C@]4(C)CC[C@@]3(C)[C@@H]2C1 | 20.5
C#CCOC(=O)[C@]1(C)CC[C@]2(C)CC[C@]3(C)C4=CC=C5C(=CC(=O)C(OC(=O)N(C)CCCC)=C5C)[C@]4(C)CC[C@@]3(C)[C@@H]2C1 | 20.3
C#CCOC(=O)[C@]1(C)CC[C@]2(C)CC[C@]3(C)C4=CC=C5C(=CC(=O)C(OC(=O)N(CCCC)CCCC)=C5C)[C@]4(C)CC[C@@]3(C)[C@@H]2C1 | 22.3
C#CCOC(=O)[C@]1(C)CC[C@]2(C)CC[C@]3(C)C4=CC=C5C(=CC(=O)C(OC(=O)N6CCN(c7ccccc7)CC6)=C5C)[C@]4(C)CC[C@@]3(C)[C@@H]2C1 | 19.3
C#CCOC(=O)[C@]1(C)CC[C@]2(C)CC[C@]3(C)C4=CC=C5C(=CC(=O)C(OC(=O)N6CCN(c7ccc(Cl)cc7)CC6)=C5C)[C@]4(C)CC[C@@]3(C)[C@@H]2C1 | 20.1
C#CCOC(=O)[C@]1(C)CC[C@]2(C)CC[C@]3(C)C4=CC=C5C(=CC(=O)C(OC(=O)N6CCN(c7ccccc7Cl)CC6)=C5C)[C@]4(C)CC[C@@]3(C)[C@@H]2C1 | 20.3
C#CCOC(=O)[C@]1(C)CC[C@]2(C)CC[C@]3(C)C4=CC=C5C(=CC(=O)C(OC(=O)N6CCN(c7cccc(OC)c7)CC6)=C5C)[C@]4(C)CC[C@@]3(C)[C@@H]2C1 | 19.6
C#CCOC(=O)[C@]1(C)CC[C@]2(C)CC[C@]3(C)C4=CC=C5C(=CC(=O)C(OC(=O)N6CCN(c7ccccc7OC)CC6)=C5C)[C@]4(C)CC[C@@]3(C)[C@@H]2C1 | 18.2
